Literature values as cited in article PMC3964610 (Methods in molecular biology (Clifton, N.J.), 2012).

Settings: I.P. 10 mg/kg, male Swiss Albino mice, plasma; ref [17]

AUC: 5.718 µg·h/mL | Cmax: 5.121 µg/mL | Tmax: 4.8 min
Structure (SMILES): CCC(=O)N1CCN(c2ccc(-n3c(=O)ccc4cnc5ccc(-c6cnc7ccccc7c6)cc5c43)cc2C(F)(F)F)CC1 [Torin1, 1-(4-(4-propionylpiperazin-1-yl)-3-(trifluoromethyl)phenyl)-9-(quinolin-3-yl)benzo[h][1,6]naphthyridin-2(1H)-one]
